Experiments:
[1] = biological target: α-synuclein oligomers (Homo sapiens, UniProt P37840); assay: Gaussia luciferase protein-fragment complementation cell assay of α-synuclein oligomers in H4 neuroglioma cells; assay type: cell-based; design: full-length human α-synuclein fused to the N-terminal fragment of Gaussia princeps luciferase (syn-luc1); full-length human α-synuclein fused to the C-terminal fragment of Gaussia princeps luciferase (syn-luc2); expressed in transfected cells; host or cells: H4 neuroglioma cells (ATCC, HTB-148), transient co-transfection; settings: 1 μM or 10 μM, Example 9
Description: For controls in this assay, vehicle (i.e., DMSO), rapamycin, and bafilomycin A were used. Rapamycin, or sirolimus, is a small molecule that activates autophagy by inhibiting mTOR (mammalian target of rapamycin). […] To test this possibility, cells expressing α-synuclein were treated with each of the compounds and a cell permeable, resazurin-based assay was used to test for cell viability.
H4 neuroglioma cells (ATCC, HTB-148) were maintained in Dulbecco's Modified Eagle Medium plus high glucose, L-glutamine, and sodium pyruvate (ThermoFisher, 11995-065) with 10% heat-inactivated fetal bovine serum (ThermoFisher, 16140071) and 1% antibiotic-antimycotic cocktail (ThermoFisher, 15240062) at 37° C. and 5% CO2. DNA expression constructs encoding for full-length human α-synuclein fused to the N-terminal fragment of Gaussia princeps luciferase (syn-luc1), full-length human α-synuclein fused to the C-terminal fragment of Gaussia princeps luciferase (syn-luc2), and full-length Gaussia princeps luciferase were kindly provided by Dr. Pamela McLean, Mayo Clinic Jacksonville.^33 Cells were transiently co-transfected with syn-luc1 and syn-luc2 or transfected with luciferase alone using Superfect transfection reagent (Qiagen, 301305) according to the manufacturer's instructions. Twenty-four hours after transfection, cells were plated on a 96-well microplate at 60,000 cells per well. Twenty-four hours after plating, cells were treated with drugs or vehicle control. Following 24 hours of treatment, cells were washed 1 time with PBS and bioluminescence was measured using an automated CLARIOstar plate reader (Mandel, 430-0505). Cell permeable, native coelenterazine was used as the Gaussia luciferase substrate. Lyophilized coelenterazine (Nanolight, 303-500) was reconstituted in NanoFuel Solvent (Nanolight, 399-1), then diluted in PBS to 16.6 μg/mL, and dispensed per well to a final concentration of 20 μM). The bioluminescent signal generated by the luciferase enzyme was assessed at 470 nm over 5 seconds. Raw luminescence units were normalized to the DMSO vehicle control of each 96-well microplate. To assess cell viability, H4 neuroglioma cells were prepared and treated as described above and, 1 hour prior to viability analysis, cells were treated with PrestoBlue viability reagent (ThermoFisher, A13261) according to the manufacturer's instructions. Fluorescence was automatically measured using a CLARIOstar plate reader (Mandel, 430-0505) and then normalized to the fluorescence measure of the DMSO vehicle control.
We used a bioluminescent protein-fragment complementation assay in which human H4 neuroglioma cells co-express human α-synuclein tagged with the N- or C-terminal half of Gaussia princeps luciferase (FIG. 12). Reconstitution of a complete and active luciferase molecule from the fragments occurs upon α-synuclein oligomerization, and so luminescence provides an indirect measure of α-synuclein oligomer levels. H4 neuroglioma cells were co-transfected with α-syn luciferase fragments, and constructs were plated into a 96-well plate and treated with either 1 μM or 10 μM of each of the 19 drug compounds.

[2] = test system: HSP70 mRNA; assay: Real-time quantitative RT-PCR of HSP70 mRNA in rat primary cortical neurons; assay type: cell-based; settings: 10 μM
Description: FIG. 18. […] Real-time quantitative RT-PCR was performed with 3 distinct primer sets for HSP70. β-Actin was used as the reference gene and the expression of HSP70 mRNA was analyzed by 2^−ΔΔCT method. The control group treated with DMSO was set as calibrator sample representing the 1×expression. Data are presented as mean±SEM. (n=3 independent experiments, unpaired two-tailed Student's t-test, ** p<0.01)
To investigate the mechanism underlying these drug effects, experiments were directed towards the potential involvement of molecular chaperone HSP70. […] To investigate the in silico predictions of HSP70 interactions with top drug candidates from the Cyclica proteome screening, fluorescence intensity was measured in V1 S-SV2 primary cortical rat neurons (FIGS. 15A and E) for potential effects on α-synuclein oligomers.
Total RNA was isolated from the cultured neurons on DIV 5 using RNeasy Mini Kit (50) (Qiagen, Cat #74104) according to the manufacturer's instructions. RNA quantity and purity were determined by spectrophotometric analysis (NanoDrop 2000c; Thermo Scientific). […] Quantitative real-time PCR was performed in the Quant Studio™ 5 Real-Time PCR System (ThermoFisher Scientific) using Power Track™ SYBR Green Master Mix (Invitrogen, Cat #A46109). […]

- α-syn oligomers as measured by luciferase activity [1]: significant decrease
Compound: Nc1nc(NC2CC2)c2ncn([C@H]3C=C[C@@H](CO)C3)c2n1 [Abacavir, abacavir]
- HSP70 mRNA levels compared with vehicle control [2]: increased
